These results are taken from ChEMBL document CHEMBL4002634, “Benzoflavones as cholesterol esterase inhibitors: Synthesis, biological evaluation and docking studies” (Bioorg Med Chem Lett, 2017).

Molecules are shown by their SMILES.

Assay [1] deals with T1, Carboxylic ester hydrolase (Sus scrofa) (UniProt A0A286ZKB1).
T1 sequence (whole entry): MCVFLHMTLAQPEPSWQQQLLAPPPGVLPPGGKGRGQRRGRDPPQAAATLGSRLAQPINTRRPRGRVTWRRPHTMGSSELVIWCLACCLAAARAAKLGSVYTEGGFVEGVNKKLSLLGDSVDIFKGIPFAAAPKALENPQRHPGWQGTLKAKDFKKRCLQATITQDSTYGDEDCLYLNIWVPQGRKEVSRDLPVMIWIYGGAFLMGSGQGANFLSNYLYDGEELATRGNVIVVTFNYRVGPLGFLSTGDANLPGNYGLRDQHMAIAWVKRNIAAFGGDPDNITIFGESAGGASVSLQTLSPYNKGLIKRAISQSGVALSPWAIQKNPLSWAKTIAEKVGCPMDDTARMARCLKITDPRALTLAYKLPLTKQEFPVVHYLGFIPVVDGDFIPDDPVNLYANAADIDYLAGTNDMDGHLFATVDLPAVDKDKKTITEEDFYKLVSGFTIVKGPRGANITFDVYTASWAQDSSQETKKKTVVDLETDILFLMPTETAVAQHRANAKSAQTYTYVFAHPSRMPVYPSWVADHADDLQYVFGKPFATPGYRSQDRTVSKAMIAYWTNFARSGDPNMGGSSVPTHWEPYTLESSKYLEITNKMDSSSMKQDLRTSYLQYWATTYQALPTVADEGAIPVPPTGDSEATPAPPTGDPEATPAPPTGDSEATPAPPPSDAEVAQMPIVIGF
Nature of the assay: Inhibition of porcine cholesterol esterase at 25 nM using para-nitrophenyl butyrate as substrate after 5 mins in presence of sodium taurocholate by spectrophotometric method relative to control.

For assay [2], the target named is T2, Carboxylic ester hydrolase (Sus scrofa, UniProt A0A286ZKB1).
T2 sequence (A0A286ZKB1 whole entry): T1 sequence (whole entry)
Description: Inhibition of porcine cholesterol esterase using para-nitrophenyl butyrate as substrate after 5 mins in presence of sodium taurocholate by spectrophotometric method.

The target of assay [3] is T1, Carboxylic ester hydrolase (Sus scrofa). Description: Inhibition of porcine cholesterol esterase at 50 nM using para-nitrophenyl butyrate as substrate after 5 mins in presence of sodium taurocholate by spectrophotometric method relative to control.
For assay [4] the target is unchanged. Description: Inhibition of porcine cholesterol esterase at 5 nM using para-nitrophenyl butyrate as substrate after 5 mins in presence of sodium taurocholate by spectrophotometric method relative to control.
For assay [5] the target is unchanged. Description: Inhibition of porcine cholesterol esterase at 1 nM using para-nitrophenyl butyrate as substrate after 5 mins in presence of sodium taurocholate by spectrophotometric method relative to control.
For assay [6] the target is unchanged. Description: Inhibition of porcine cholesterol esterase at 10 nM using para-nitrophenyl butyrate as substrate after 5 mins in presence of sodium taurocholate by spectrophotometric method relative to control.

Take `O=c1cc(-c2cccc([N+](=O)[O-])c2)oc2c1ccc1ccccc12`: the inhibition (usually the relative decrease from the control value, in per cent) in assay [1] is 75%; in assay [3], 78%; in assay [4], 51%; in assay [5] it was 36%; in assay [6], 71%. Also, the IC50 (as a rule, the concentration at which inhibition is half-maximal) in assay [2] (read-out: IC50) was 25.1 nM.

Consider `O=c1cc(-c2ccc(F)cc2)oc2c1ccc1ccccc12`, for which the inhibition was found to be 75% in assay [1]; 79% in assay [3]; 62% in assay [4]; 46% in assay [5]; 73% in assay [6]. Also, the IC50 in assay [2] (read-out: IC50) worked out at 20.1 nM.

`O=c1cc(-c2ccc(F)cc2F)oc2c1ccc1ccccc12`: the inhibition in assay [1] was 91%; in assay [3], 97%; in assay [4], 66%; in assay [5], 51%; in assay [6], 80%. The IC50 in assay [2] (read-out: IC50) was determined as 1.43 nM.

`O=c1cc(-c2cccc(OC(F)(F)F)c2)oc2c1ccc1ccccc12`: the inhibition in assay [1] is 39%; in assay [3], 44%; in assay [4] it was 24%; in assay [5] it was 17%; in assay [6], 32%. In addition, the IC50 result in assay [2] is on record as “Not Active”.

As to `O=c1cc(-c2ccccc2C(F)(F)F)oc2c1ccc1ccccc12`, the inhibition stood at 48% in assay [1]; 58% in assay [3]; 32% in assay [4]; 29% in assay [5]; 36% in assay [6]. Moreover, in assay [2], the 50% inhibitory concentration (IC50) result is “Not Active”.

As to `O=c1cc(-c2ccc(Br)cc2)oc2c1ccc1ccccc12`, the inhibition in assay [1] amounted to 76%; in assay [3], 77%; in assay [4] it was 59%; in assay [5] it was 40%; in assay [6] it was 74%. In addition, in assay [2] (read-out: IC50), the concentration for half-maximal inhibition (IC50) is 28.5 nM.

On to `O=c1cc(-c2ccc(I)cc2)oc2c1ccc1ccccc12`, for which the inhibition in assay [1] was determined as 73%; in assay [3], 75%; in assay [4], 53%; in assay [5], 38%; in assay [6], 71%. Also, in assay [2] (read-out: IC50), the IC50 stood at 34.1 nM.

In the case of `O=c1cc(-c2ccc(C(F)(F)F)cc2)oc2c1ccc1ccccc12`, the inhibition was 46% in assay [1]; 56% in assay [3]; 29% in assay [4]; 25% in assay [5]; 35% in assay [6]. For the same compound, the half-maximal inhibitory concentration (IC50) result in assay [2] is “Not Active”.

Take `O=c1cc(-c2c(F)cccc2C(F)(F)F)oc2c1ccc1ccccc12`: the inhibition amounted to 59% in assay [1]; 64% in assay [3]; 48% in assay [4]; 31% in assay [5]; 52% in assay [6]. In addition, in assay [2] (read-out: IC50), the half-maximal inhibitory concentration (IC50) was determined as 38.9 nM.

As for `CC(=O)Oc1ccc(-c2cc(=O)c3ccc4ccccc4c3o2)cc1`, the inhibition was 46% in assay [1]; 56% in assay [3]; 28% in assay [4]; 21% in assay [5]; 34% in assay [6]. Besides, the IC50 result in assay [2] is recorded as “Not Active”.

In the case of `O=c1cc(-c2c(F)cccc2F)oc2c1ccc1ccccc12`, the inhibition in assay [1] was determined as 88%; in assay [3], 92%; in assay [4], 71%; in assay [5] it was 54%; in assay [6], 83%. In addition, the half-inhibitory concentration (IC50) in assay [2] (read-out: IC50) came out at 1.99 nM.

`O=c1cc(-c2cccc(Br)c2)oc2c1ccc1ccccc12`: the inhibition amounted to 76% in assay [1]; 78% in assay [3]; 57% in assay [4]; 43% in assay [5]; 73% in assay [6]. Further, in assay [2] (read-out: IC50), the half-maximal inhibitory concentration (IC50) stood at 26.1 nM.

Turning to `O=c1cc(-c2ccc(F)c(F)c2)oc2c1ccc1ccccc12`, the inhibition is 79% in assay [1]; 81% in assay [3]; 68% in assay [4]; 48% in assay [5]; 76% in assay [6]. Besides, the concentration for half-maximal inhibition (IC50) in assay [2] (read-out: IC50) stood at 14.1 nM.

As to `COc1ccc(-c2cc(=O)c3ccc4ccccc4c3o2)cc1`, the inhibition in assay [1] stood at 28%; in assay [3], 31%; in assay [4], 18%; in assay [5], 11%; in assay [6] it was 22%. In addition, in assay [2], the half-inhibitory concentration (IC50) entry is “Not Active”.

As to `O=c1cc(-c2ccc(C(F)(F)F)cc2F)oc2c1ccc1ccccc12`, the inhibition in assay [1] was 62%; in assay [3], 67%; in assay [4] it was 43%; in assay [5], 33%; in assay [6], 51%. Further, the IC50 in assay [2] (read-out: IC50) worked out at 39 nM.

Turning to `O=c1cc(-c2ccc(CCl)cc2)oc2c1ccc1ccccc12`, the inhibition was determined as 60% in assay [1]; 66% in assay [3]; 43% in assay [4]; 32% in assay [5]; 48% in assay [6]. In assay [2] (read-out: IC50), the IC50 was determined as 39.2 nM.

Consider `O=c1cc(-c2cc(C(F)(F)F)cc(C(F)(F)F)c2)oc2c1ccc1ccccc12`, for which the inhibition was determined as 42% in assay [1]; 54% in assay [3]; 28% in assay [4]; 21% in assay [5]; 34% in assay [6]. In addition, the IC50 result in assay [2] was “Not Active”.

Consider `O=c1cc(-c2ccc(OC(F)(F)F)cc2)oc2c1ccc1ccccc12`, for which the inhibition worked out at 42% in assay [1]; 46% in assay [3]; 26% in assay [4]; 20% in assay [5]; 35% in assay [6]. The 50% inhibitory concentration (IC50) result in assay [2] was “Not Active”.

Consider `O=c1cc(-c2cccc(F)c2)oc2c1ccc1ccccc12`, for which the inhibition was found to be 83% in assay [1]; 87% in assay [3]; 64% in assay [4]; 50% in assay [5]; 79% in assay [6]. Moreover, in assay [2] (read-out: IC50), the IC50 amounted to 5.24 nM.

For `O=c1cc(-c2ccccc2)oc2c1ccc1ccccc12` [ALPHA-NAPHTHOFLAVONE], the inhibition was 48% in assay [1]; 51% in assay [3]; 33% in assay [4]; 28% in assay [5]; 40% in assay [6]. For the same compound, the IC50 in assay [2] (read-out: IC50) turned out to be 47.8 nM.

As for `COc1ccc(-c2cc(=O)c3ccc4ccccc4c3o2)c(OC)c1`, the inhibition in assay [1] came out at 25%; in assay [3], 28%; in assay [4], 12%; in assay [5] it was 6%; in assay [6], 21%. In assay [2], the IC50 result is on record as “Not Active”.

For `COc1ccc(-c2cc(=O)c3ccc4ccccc4c3o2)cc1OC`, the inhibition was 23% in assay [1]; 25% in assay [3]; 14% in assay [4]; 5% in assay [5]; 20% in assay [6]. In addition, in assay [2], the concentration for half-maximal inhibition (IC50) entry is “Not Active”.

As to `O=c1cc(-c2cccc(CCl)c2)oc2c1ccc1ccccc12`, the inhibition in assay [1] is 62%; in assay [3] it was 68%; in assay [4] it was 45%; in assay [5] it was 35%; in assay [6] it was 52%. For the same compound, the half-maximal inhibitory concentration (IC50) in assay [2] (read-out: IC50) stood at 40 nM.

Take `O=c1cc(-c2ccccc2F)oc2c1ccc1ccccc12`: the inhibition turned out to be 84% in assay [1]; 89% in assay [3]; 65% in assay [4]; 50% in assay [5]; 81% in assay [6]. In assay [2] (read-out: IC50), the IC50 is 3.22 nM.

Turning to `O=c1cc(-c2ccc(F)cc2C(F)(F)F)oc2c1ccc1ccccc12`, the inhibition came out at 55% in assay [1]; 63% in assay [3]; 38% in assay [4]; 28% in assay [5]; 44% in assay [6]. Also, the IC50 in assay [2] (read-out: IC50) was 39.1 nM.

As for `O=c1cc(-c2cccc(C(F)(F)F)c2)oc2c1ccc1ccccc12`, the inhibition stood at 47% in assay [1]; 57% in assay [3]; 30% in assay [4]; 26% in assay [5]; 34% in assay [6]. Also, the IC50 entry in assay [2] was “Not Active”.

With `O=c1cc(-c2cc(F)ccc2C(F)(F)F)oc2c1ccc1ccccc12`, the inhibition in assay [1] was 54%; in assay [3], 63%; in assay [4] it was 34%; in assay [5], 26%; in assay [6], 41%. Moreover, the IC50 in assay [2] (read-out: IC50) is 41.3 nM.

As to `CN(C)c1ccc(-c2cc(=O)c3ccc4ccccc4c3o2)cc1`, the inhibition was determined as 21% in assay [1]; 23% in assay [3]; 12% in assay [4]; 9% in assay [5]; 18% in assay [6]. Moreover, the IC50 result in assay [2] is reported as “Not Active”.
